Data on eleven compounds can be found in patent publication US11697650B2, “Compounds having tetrahydroindolizine-1-carboxamide as BCL-2 inhibitors” (Eil Therapeutics, Inc., priority 2021, dated 2023).

Series [1] deals with BCL-XL (Homo sapiens (Human), UniProt Q07817). Nature of the series: BCL-XL TR-FRET Assay (primary PPI inhibition). Format: binding. The conditions noted are these: 60 min incubation; read-out: BCLxL (IC50 code, BCL-XL TR-FRET). The protocol: BCL-XL TR-FRET Assay (BPS Bioscience, #50223)
The following assay concentrations and times were used: 10.5 ng BCL-XL, 5 μl of 1:100 anti-His Tb-labeled donor, 5 μl of 1:100 Dye-labeled acceptor, 5 μl of 1:80 BCL-XL Peptide Ligand, and 2 μl of test compound, with 60 min incubation time. The results of the assay were read using a Clariostar (BMG Labtech) plate reader with the following parameters: TR FRET, 340ex/620 and 665em; 60 μsec Delay; and 500 μsec integration.
(TR-FRET usually uses a lanthanide donor and a delayed reading to cut background.)

The target of series [2] is BCL-2 (Homo sapiens (Human), UniProt P10415). The series can be described thus: BCL-2 TR-FRET Assay (primary PPI inhibition). Format: binding. The conditions noted are these: 60 min incubation; read-out: BCL2 (IC50 code, BCL-2 TR-FRET). The procedure: BCL-2 TR-FRET Assay (BPS Bioscience, #50222)
The following assay concentrations and times were used: 3 ng BCL-2, 5 μl of 1:100 anti-His Tb-labeled donor, 5 μl of 1:100 Dye-labeled acceptor, 5 μl of 1:40 BCL-2 Peptide Ligand, and 2 ul of test compound, with 60 min incubation time. The results of the assay were read using a Clariostar (BMG Labtech) plate reader with the following parameters: TR FRET, 340ex/620 and 665em; 60 μsec Delay; and 500 μsec integration.

Series [3] deals with caspase-3 and -7 activities in RS4-11 cells. Nature of the series: Caspase-3/7 activation (Caspase-Glo 3/7) in RS4-11 cells. Format: cell-based. The conditions noted are these: Homo sapiens, 3.5 h incubation, read-out: Cas-3/7 (EC50 code). The procedure:
The Caspase-Glo 3/7 Assay is homogeneous, luminescent assay that measures caspase-3 and -7 activities. The assay provides a luminogenic caspase-3/7 substrate, which contains the tetrapeptide sequence DEVD, in a reagent optimized for caspase activity.
Incubate RS4-11 cells with varying concentrations of test compounds for 3.5 h in a humidified incubator at 37° C. and 5% CO2 and 30 min at r.t. Add 15 μl Caspase-Glo reagent to each well and incubate the plate for 30 min at r.t. Read on ClarioStar Plus instrument.
Promega Caspase-Glo (Promega, #8212); Frozen RS4-11 cells; 384-well white plate (Corning, #3570).
ClarioStar Plus; Biomek FX for liquid handling (Beckman Coulter).

The subject of series [4] is RS4-11 cells. The series can be described thus: Cell viability assay (CellTiter-Glo), RS4-11. Format: cell-based. The conditions noted are these: Homo sapiens, 72 h, 3 days, read-out: RS4-11 (CC50 code). The procedure:
(§1) Culture medium for HEK293—DMEM (PanEco, Cat #C420) was used. RPMI-1640 (PanEco, Cat #C363) was used for the rest of the cell lines.
(§2) Compounds were prepared as 200× stocks with serial dilution in 100% DMSO with a final concentration of 1×.
(§3) […] were dispersed in 40 μL aliquots in 384-well plates at a concentration of 2000 cells per well for HEK293 and at a concentration of 4000 cells per well for the rest of the cell lines using a robotic station Biomek (Beckman). Before adding compounds, the cells were incubated at 37° C. (HEK293 were incubated for a day before adding compounds).
(§4) A dilution plate was prepared by pouring 78 μL of the appropriate culture medium using a robotic station Biomek (Beckman). Sequentially, using a robotic station, 2 μL of substances were taken and added to 78 μL of culture medium (dilution of compounds 40×). 10 μL aliquots were taken and added to the plates of the cells (dilution of compounds 5×). The plates were incubated for 3 days at a temperature 37° C. After 3 days, 10 μL of CellTiter-Glo (Promega) was added to the cells and the luminescence was measured.
(In general: ATP-based viability assays read luminescence as a measure of living cells.)

A short description of series [5]: Cell viability assay (CellTiter-Glo), HEK293. Format: cell-based. The conditions noted are these: human, HEK293 cells, read-out: HEK293 (CC50 code). The protocol:
as §1, §2, §3, §4

Series [6] deals with MOLT-4 cells. The series can be described thus: Cell viability assay (CellTiter-Glo), MOLT-4. Format: cell-based. The conditions noted are these: Homo sapiens, 72 h, 3 days, read-out: MOLT-4 (CC50 code). The protocol: as §1, §2, §3, §4

Some results are limits rather than exact numbers.

Chain of BCL-XL (Q07817 whole entry): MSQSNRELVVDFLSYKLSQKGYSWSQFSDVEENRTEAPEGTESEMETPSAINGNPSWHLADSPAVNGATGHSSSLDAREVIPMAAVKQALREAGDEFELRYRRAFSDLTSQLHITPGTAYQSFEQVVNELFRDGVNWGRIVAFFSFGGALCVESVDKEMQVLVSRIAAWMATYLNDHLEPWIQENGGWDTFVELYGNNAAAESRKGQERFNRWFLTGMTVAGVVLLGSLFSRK
Chain of BCL-2 (P10415 whole entry): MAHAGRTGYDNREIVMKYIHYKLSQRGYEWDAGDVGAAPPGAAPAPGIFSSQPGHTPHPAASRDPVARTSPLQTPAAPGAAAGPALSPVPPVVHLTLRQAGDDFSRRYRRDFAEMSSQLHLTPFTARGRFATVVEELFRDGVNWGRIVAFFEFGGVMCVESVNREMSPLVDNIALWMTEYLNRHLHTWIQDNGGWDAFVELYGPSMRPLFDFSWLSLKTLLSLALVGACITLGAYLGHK

Regarding `COc1cccc(CN(C(=O)c2cc(-c3cc4c(cc3C(=O)N3Cc5ccccc5C[C@H]3CN3CCOCC3)OCO4)n3c2CCCC3)c2ccc(O)cc2)c1C` [Compound 3, N-(4-hydroxyphenyl)-N-(3-methoxy-2-methylbenzyl)-3-(6-{[(3S)-3-(morpholin-4-ylmethyl)-3,4-dihydroisoquinolin-2(1H)-yl]carbonyl}-1,3-benzodioxol-5-yl)-5,6,7,8-tetrahydroindolizine-1-carboxamide], the IC50 in series [1] is at most 2000 nM; in series [2], at most 5 nM. The EC50 in series [3] was at most 100 nM. Besides, the values for the CC50 in series [4] and in series [6] were at most 100 nM and at most 2000 nM, respectively. Moreover, the CC50 at 3 days in series [5] is above 25000 nM.

As to `Cc1ccccc1CN(C(=O)c1cc(-c2cc3c(cc2C(=O)N2Cc4ccccc4C[C@H]2CN2CCOCC2)OCO3)n2c1CCCC2)c1ccc(O)cc1` [Compound 4, N-(4-hydroxyphenyl)-N-(2-methylbenzyl)-3-(6-{[(3S)-3-(morpholin-4-ylmethyl)-3,4-dihydroisoquinolin-2(1H)-yl]carbonyl}-1,3-benzodioxol-5-yl)-5,6,7,8-tetrahydroindolizine-1-carboxamide], the IC50 was at most 2000 nM in series [1] and at most 5 nM in series [2]. Besides, in series [3], the EC50 was at most 100 nM. Further, the CC50 in series [4] was at most 100 nM; in series [6], above 10000 nM. In series [5], the CC50 at 3 days was above 25000 nM.

For the compound `O=C(c1cc(-c2cc3c(cc2C(=O)N2Cc4ccccc4C[C@H]2CN2CCOCC2)OCO3)n2c1CCCC2)N(Cc1ccccc1C(F)(F)F)c1ccc(O)cc1` [Compound 5, N-(4-hydroxyphenyl)-3-(6-{[(3S)-3-(morpholin-4-ylmethyl)-3,4-dihydroisoquinolin-2(1H)-yl]carbonyl}-1,3-benzodioxol-5-yl)-N-[2-(trifluoromethyl)benzyl]-5,6,7,8-tetrahydroindolizine-1-carboxamide], the IC50 was at most 2000 nM in series [1] and at most 5 nM in series [2]. The EC50 in series [3] was at most 100 nM. For the same compound, the cytotoxic concentration (CC50) in series [4] was at most 100 nM; in series [6], 2000 to 10000 nM. Besides, the CC50 at 3 days in series [5] was above 25000 nM.

As for `O=C(c1cc(-c2cc3c(cc2C(=O)N2Cc4ccccc4C[C@H]2CN2CCOCC2)OCO3)n2c1CCCC2)N(Cc1ccccc1F)c1ccc(O)cc1` [Compound 11, N-(2-fluorobenzyl)-N-(4-hydroxyphenyl)-3-(6-{[(3S)-3-(morpholin-4-ylmethyl)-3,4-dihydroisoquinolin-2(1H)-yl]carbonyl}-1,3-benzodioxol-5-yl)-5,6,7,8-tetrahydroindolizine-1-carboxamide], the EC50 in series [3] is at most 100 nM. Also, the CC50 in series [4] was at most 100 nM; in series [6], above 10000 nM. For the same compound, in series [5], the 50% cytotoxic concentration (CC50) at 3 days fell in the range of 10000 to 25000 nM.

Consider `O=C(c1cc(-c2cc3c(cc2C(=O)N2Cc4ccccc4C[C@H]2CN2CCOCC2)OCO3)n2c1CCCC2)N(Cc1ccc(F)cc1)c1ccc(O)cc1` [Compound 17, N-(4-fluorobenzyl)-N-(4-hydroxyphenyl)-3-(6-{[(3S)-3-(morpholin-4-ylmethyl)-3,4-dihydroisoquinolin-2(1H)-yl]carbonyl}-1,3-benzodioxol-5-yl)-5,6,7,8-tetrahydroindolizine-1-carboxamide], for which, in series [2], the IC50 was in the range of 10 to 50 nM. Besides, the EC50 in series [3] is above 250 nM. The CC50 in series [4] was above 200 nM; in series [6], above 10000 nM. Further, the CC50 at 3 days in series [5] was above 25000 nM.

Take `CCOc1ccc(-c2nc(CN(C(=O)c3cc(-c4cc5c(cc4C(=O)N4Cc6ccccc6C[C@H]4CN4CCOCC4)OCO5)n4c3CCCC4)c3ccc(O)cc3)c(C)o2)cc1` [Compound 27, N-{[2-(4-ethoxyphenyl)-5-methyl-1,3-oxazol-4-yl]methyl}-N-(4-hydroxyphenyl)-3-(6-{[(3S)-3-(morpholin-4-ylmethyl)-3,4-dihydroisoquinolin-2(1H)-yl]carbonyl}-1,3-benzodioxol-5-yl)-5,6,7,8-tetrahydroindolizine-1-carboxamide]: the IC50 was above 4000 nM in series [1] and above 50 nM in series [2].

On to `Cc1cc(C(F)(F)F)ccc1CN(C(=O)c1cc(-c2cc3c(cc2C(=O)N2Cc4ccccc4C[C@H]2CN2CCOCC2)OCO3)n2c1CCCC2)c1ccc(O)cc1` [Compound 37, N-(4-hydroxyphenyl)-N-[2-methyl-4-(trifluoromethyl)benzyl]-3-(6-{[(3S)-3-(morpholin-4-ylmethyl)-3,4-dihydroisoquinolin-2(1H)-yl]carbonyl}-1,3-benzodioxol-5-yl)-5,6,7,8-tetrahydroindolizine-1-carboxamide], for which the IC50 in series [2] lay in the range of 5 to 10 nM. In series [3], the EC50 is 100 to 250 nM. Further, the CC50 in series [4] was at most 100 nM; in series [6], 2000 to 10000 nM. In addition, the CC50 at 3 days in series [5] is above 25000 nM.

For the compound `O=C(c1cc(-c2cc3c(cc2C(=O)N2Cc4ccccc4C[C@H]2CN2CCOCC2)OCO3)n2c1CCCC2)N(Cc1cccnc1)c1ccc(O)cc1` [Compound 39, N-(4-hydroxyphenyl)-3-(6-{[(3S)-3-(morpholin-4-ylmethyl)-3,4-dihydroisoquinolin-2(1H)-yl]carbonyl}-1,3-benzodioxol-5-yl)-N-(pyridin-3-ylmethyl)-5,6,7,8-tetrahydroindolizine-1-carboxamide], the IC50 in series [1] lay in the range of 2000 to 4000 nM; in series [2], 5 to 10 nM. The CC50 in series [4] was above 200 nM; in series [6], at most 2000 nM. The CC50 at 3 days in series [5] was 10000 to 25000 nM.

In the case of `CS(=O)(=O)NC(=O)c1cccc(CN(C(=O)c2cc(-c3cc4c(cc3C(=O)N3Cc5ccccc5C[C@H]3CN3CCOCC3)OCO4)n3c2CCCC3)c2ccc(O)cc2)c1` [Compound 43, N-(4-hydroxyphenyl)-N-{3-[(methylsulfonyl)carbamoyl]benzyl}-3-(6-{[(3S)-3-(morpholin-4-ylmethyl)-3,4-dihydroisoquinolin-2(1H)-yl]carbonyl}-1,3-benzodioxol-5-yl)-5,6,7,8-tetrahydroindolizine-1-carboxamide], the values for the IC50 in series [1] and in series [2] were 2000 to 4000 nM and 5 to 10 nM, respectively.

Take `O=C(O)c1cccc(CN(C(=O)c2cc(-c3cc4c(cc3C(=O)N3Cc5ccccc5C[C@H]3CN3CCOCC3)OCO4)n3c2CCCC3)c2ccc(O)cc2)c1` [Compound 45, 3-[(4-Hydroxy-N-[3-[6-[(3S)-3-(morpholinomethyl)-3,4-dihydro-1H-isoquinoline-2-carbonyl]-1,3-benzodioxol-5-yl]-5,6,7,8-tetrahydroindolizine-1-carbonyl]anilino)methyl]benzoic Acid]: the half-inhibitory concentration (IC50) in series [1] lay within 2000 to 4000 nM; in series [2], 10 to 50 nM. Further, the half-maximal cytotoxic concentration (CC50) was above 200 nM in series [4] and above 10000 nM in series [6]. Further, the CC50 at 3 days in series [5] is above 25000 nM.

With `O=C(c1cc(-c2cc3c(cc2C(=O)N2Cc4ccccc4C[C@H]2CN2CCOCC2)OCO3)n2c1CCCC2)N(Cc1cccc([N+](=O)[O-])c1)c1ccc(O)cc1` [Compound 49, N-(4-Hydroxyphenyl)-3-[6-[(3S)-3-(morpholinomethyl)-3,4-dihydro-1H-isoquinoline-2-carbonyl]-1,3-benzodioxol-5-yl]-N-[(3-nitrophenyl)methyl]-5,6,7,8-tetrahydroindolizine-1-carboxamide], the half-inhibitory concentration (IC50) in series [1] is above 4000 nM; in series [2], above 50 nM. Besides, the CC50 in series [4] was above 200 nM; in series [6], above 10000 nM. In addition, the CC50 at 3 days in series [5] was above 25000 nM.

The term IC50 denotes the concentration at which inhibition is half-maximal. For orientation: CC50 means the concentration at which the toxic effect on the cells reaches its halfway point.
